Assay results reported in ChEMBL document CHEMBL1201862, “PubChem BioAssay data set” (2004).
The source made the active and inactive calls.

Experiments:
Cytochrome P450 3A4 [1] = biological target: T1, Cytochrome P450 3A4 (Homo sapiens, UniProt P08684); conditions: Potency
[2] = biological target: T2, Short transient receptor potential channel 4 (Mus musculus, UniProt Q9QUQ5); assay: block of DAMGO-driven TRPC4 calcium entry – cell-based, HEK293 TRPC4/mu-opioid, Fluo-4 calcium, dose response (AID 434942); format: functional;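 also: potency of inhibitors blocking the TRPC4 calcium response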
T2 sequence (Q9QUQ5 whole entry): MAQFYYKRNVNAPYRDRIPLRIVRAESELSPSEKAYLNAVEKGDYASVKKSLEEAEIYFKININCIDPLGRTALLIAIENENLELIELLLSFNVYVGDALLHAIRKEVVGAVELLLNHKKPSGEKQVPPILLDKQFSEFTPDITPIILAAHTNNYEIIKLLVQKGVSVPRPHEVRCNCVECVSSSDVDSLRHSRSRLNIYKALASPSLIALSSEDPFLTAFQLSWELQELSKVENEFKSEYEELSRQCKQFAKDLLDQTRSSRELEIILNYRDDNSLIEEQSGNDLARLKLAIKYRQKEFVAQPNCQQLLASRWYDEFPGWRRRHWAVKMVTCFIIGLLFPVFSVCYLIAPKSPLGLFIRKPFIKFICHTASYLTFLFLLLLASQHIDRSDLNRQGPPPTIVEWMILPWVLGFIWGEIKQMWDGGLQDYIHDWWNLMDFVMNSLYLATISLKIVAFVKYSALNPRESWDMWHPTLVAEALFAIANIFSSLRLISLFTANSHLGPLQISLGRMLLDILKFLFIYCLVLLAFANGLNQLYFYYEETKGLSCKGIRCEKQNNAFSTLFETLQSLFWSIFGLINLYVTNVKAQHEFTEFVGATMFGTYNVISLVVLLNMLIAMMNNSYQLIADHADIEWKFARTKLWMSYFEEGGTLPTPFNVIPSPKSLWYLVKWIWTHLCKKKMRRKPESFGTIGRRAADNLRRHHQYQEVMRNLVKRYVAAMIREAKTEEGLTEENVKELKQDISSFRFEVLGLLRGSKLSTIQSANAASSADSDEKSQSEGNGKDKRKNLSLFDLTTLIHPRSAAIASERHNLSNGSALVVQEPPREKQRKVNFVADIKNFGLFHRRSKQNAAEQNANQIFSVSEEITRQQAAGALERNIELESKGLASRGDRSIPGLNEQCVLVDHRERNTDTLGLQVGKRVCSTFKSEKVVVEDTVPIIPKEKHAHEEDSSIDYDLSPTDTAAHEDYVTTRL

Cytochrome P450 2D6 = Cytochrome P450 2D6 (Homo sapiens, UniProt P10635);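 also: CYP2D6 member of a cytochrome P450 panel assay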
Cytochrome P450 3A4 [3] = biological target: T1, Cytochrome P450 3A4
[4] = biological target: T3, Voltage-gated N-type calcium channel alpha-1B subunit/Amyloid beta A4 precursor protein-binding family A member 1 (Homo sapiens, UniProt Q00975+Q02410); format: protein assay
Large T antigen = Large T antigen (Simian virus 40, UniProt P03070); format: functional, Betapolyomavirus macacae;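 also: Confirmatory-stage PubChem screen for compounds that inhibit SV40 T antigen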
[5] = biological target: T3, Voltage-gated N-type calcium channel alpha-1B subunit/Amyloid beta A4 precursor protein-binding family A member 1; format: protein assay; remark: listed apart in the source
Caspase-6 = biological target: T4, Caspase-6 (Homo sapiens, UniProt P55212); assay: inhibition of CASP6 peptide cleavage – biochemical, VEID-R110 fluorescence, cherry-pick, dose response (AID 720632)
T4 sequence (P55212 whole entry): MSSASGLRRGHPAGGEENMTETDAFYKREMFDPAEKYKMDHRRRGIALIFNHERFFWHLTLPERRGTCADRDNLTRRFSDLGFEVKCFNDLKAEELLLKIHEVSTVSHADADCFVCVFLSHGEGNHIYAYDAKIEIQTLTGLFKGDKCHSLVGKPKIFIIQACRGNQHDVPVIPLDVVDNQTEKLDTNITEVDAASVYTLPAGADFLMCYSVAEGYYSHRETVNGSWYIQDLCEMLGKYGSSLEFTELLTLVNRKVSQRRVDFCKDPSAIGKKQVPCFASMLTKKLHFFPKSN

Cytochrome P450 2C19 = Cytochrome P450 2C19 (Homo sapiens, UniProt P33261); assay: Cytochrome panel assay with activity outcomes. Panel member name: p450-cyp2c19 Compounds with AC50 equal or less than 10 uM are considered active; format: functional; conditions: read-out: AC50
Cytochrome P450 3A4 [6] = biological target: T1, Cytochrome P450 3A4; remark: listed apart in the source
BJ [7] = assay: BJ-TERT fibroblast viability loss – cell-based, RAS-independent, luminescence, dose response (AID 1933); format: functional; conditions: Homo sapiens
BJ [8] = assay: BJ-TERT-LT-ST fibroblast viability loss – cell-based, RAS-independent, luminescence, dose response (AID 1935); format: functional; conditions: Homo sapiens;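 also: BJ fibroblasts immortalized with TERT plus LT and ST oncogenes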
[9] = DRD fibroblast viability loss – cell-based, non-viral oncogenic, luminescence, dose response (AID 1934); format: functional; conditions: Homo sapiens
BJ [10] = assay: growth inhibition of engineered Ras-driven BJ cells – cell-based, alamar blue fluorescence, cherrypicked samples, dose response (AID 2631); format: functional; conditions: Homo sapiens;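 also: confirmatory dose-response assay in RAS-dependent BJ fibroblasts engineered with TERT, LT and ST, with cytotoxicity read by fluorescence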
[11] = luciferase reporter signal suppression in cells – H4 neuroglioma cells, luminescence, dose response (AID 1990); format: functional, cell-based
[12] = test system: Streptococcus sp. 'group A'; assay: Streptococcus pyogenes SK(-)GAS viability under kanamycin – luminescence, BacTiterGlo, confirmation, counter-screen for streptokinase expression inhibitor project, dose response (AID 1900); format: functional, organism-based
[13] = Luminescence Cell-Based Dose Response HTS to Identify Inhibitors of 5'UTR Stem-Loop Driven Prion Protein mRNA Translation in H4 Neuroglioblastoma Cells. [Related pubchem assays: 1827 (Project Summary), 1813 (Primary HTS)]; format: functional
[14] = alpha-synuclein stem-loop luciferase translation blockers – H4 neuroglioma cells, luminescence, confirmation (AID 1988); format: functional, cell-based
BJ [15] = assay: cells; format: functional, cell-based; conditions: Homo sapiens
Streptococcus = assay: GAS UMAA2166 growth inhibition – luminescence, BacTiterGlo, counter-screen for streptokinase expression inhibitor project, dose response (AID 1915); format: functional, organism-based;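 also: potency for reduction of bacterial viability or growth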
Cytochrome P450 2C9 = Cytochrome P450 2C9 (Homo sapiens, UniProt P11712)
Vero [16] = assay: cells; format: functional, cell-based; conditions: Chlorocebus sabaeus
Vero [17] = assay: cells; format: functional, Chlorocebus sabaeus; conditions: Chlorocebus sabaeus, Vero
[18] = biological target: Induced myeloid leukemia cell differentiation protein Mcl-1 (Homo sapiens, UniProt Q07820); format: functional
Induced myeloid leukemia cell differentiation protein Mcl-1, sequence (Q07820 whole entry): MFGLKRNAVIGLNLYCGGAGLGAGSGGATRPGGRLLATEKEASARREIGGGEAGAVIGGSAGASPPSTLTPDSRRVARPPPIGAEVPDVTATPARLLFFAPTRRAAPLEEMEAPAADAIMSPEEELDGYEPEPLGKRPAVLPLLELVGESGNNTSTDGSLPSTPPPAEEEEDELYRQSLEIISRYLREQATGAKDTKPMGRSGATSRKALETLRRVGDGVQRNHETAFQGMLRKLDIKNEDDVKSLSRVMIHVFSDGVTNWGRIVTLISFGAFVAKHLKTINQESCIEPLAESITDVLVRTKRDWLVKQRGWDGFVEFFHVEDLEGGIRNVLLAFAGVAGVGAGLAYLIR

T1 sequence (P08684 whole entry): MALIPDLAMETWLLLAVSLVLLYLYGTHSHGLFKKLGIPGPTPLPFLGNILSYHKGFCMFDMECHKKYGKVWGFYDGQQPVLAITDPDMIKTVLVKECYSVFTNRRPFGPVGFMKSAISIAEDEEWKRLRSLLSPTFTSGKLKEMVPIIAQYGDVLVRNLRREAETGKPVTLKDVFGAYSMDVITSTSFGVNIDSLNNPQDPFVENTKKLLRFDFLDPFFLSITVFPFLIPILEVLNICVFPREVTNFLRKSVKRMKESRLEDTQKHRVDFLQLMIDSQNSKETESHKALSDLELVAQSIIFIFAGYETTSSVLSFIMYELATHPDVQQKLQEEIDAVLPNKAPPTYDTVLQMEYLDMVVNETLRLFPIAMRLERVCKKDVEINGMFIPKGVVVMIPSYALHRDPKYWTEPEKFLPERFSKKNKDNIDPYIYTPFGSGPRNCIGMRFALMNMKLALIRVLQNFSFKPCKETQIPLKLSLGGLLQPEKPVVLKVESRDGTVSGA
T3 sequence (Q00975 whole entry): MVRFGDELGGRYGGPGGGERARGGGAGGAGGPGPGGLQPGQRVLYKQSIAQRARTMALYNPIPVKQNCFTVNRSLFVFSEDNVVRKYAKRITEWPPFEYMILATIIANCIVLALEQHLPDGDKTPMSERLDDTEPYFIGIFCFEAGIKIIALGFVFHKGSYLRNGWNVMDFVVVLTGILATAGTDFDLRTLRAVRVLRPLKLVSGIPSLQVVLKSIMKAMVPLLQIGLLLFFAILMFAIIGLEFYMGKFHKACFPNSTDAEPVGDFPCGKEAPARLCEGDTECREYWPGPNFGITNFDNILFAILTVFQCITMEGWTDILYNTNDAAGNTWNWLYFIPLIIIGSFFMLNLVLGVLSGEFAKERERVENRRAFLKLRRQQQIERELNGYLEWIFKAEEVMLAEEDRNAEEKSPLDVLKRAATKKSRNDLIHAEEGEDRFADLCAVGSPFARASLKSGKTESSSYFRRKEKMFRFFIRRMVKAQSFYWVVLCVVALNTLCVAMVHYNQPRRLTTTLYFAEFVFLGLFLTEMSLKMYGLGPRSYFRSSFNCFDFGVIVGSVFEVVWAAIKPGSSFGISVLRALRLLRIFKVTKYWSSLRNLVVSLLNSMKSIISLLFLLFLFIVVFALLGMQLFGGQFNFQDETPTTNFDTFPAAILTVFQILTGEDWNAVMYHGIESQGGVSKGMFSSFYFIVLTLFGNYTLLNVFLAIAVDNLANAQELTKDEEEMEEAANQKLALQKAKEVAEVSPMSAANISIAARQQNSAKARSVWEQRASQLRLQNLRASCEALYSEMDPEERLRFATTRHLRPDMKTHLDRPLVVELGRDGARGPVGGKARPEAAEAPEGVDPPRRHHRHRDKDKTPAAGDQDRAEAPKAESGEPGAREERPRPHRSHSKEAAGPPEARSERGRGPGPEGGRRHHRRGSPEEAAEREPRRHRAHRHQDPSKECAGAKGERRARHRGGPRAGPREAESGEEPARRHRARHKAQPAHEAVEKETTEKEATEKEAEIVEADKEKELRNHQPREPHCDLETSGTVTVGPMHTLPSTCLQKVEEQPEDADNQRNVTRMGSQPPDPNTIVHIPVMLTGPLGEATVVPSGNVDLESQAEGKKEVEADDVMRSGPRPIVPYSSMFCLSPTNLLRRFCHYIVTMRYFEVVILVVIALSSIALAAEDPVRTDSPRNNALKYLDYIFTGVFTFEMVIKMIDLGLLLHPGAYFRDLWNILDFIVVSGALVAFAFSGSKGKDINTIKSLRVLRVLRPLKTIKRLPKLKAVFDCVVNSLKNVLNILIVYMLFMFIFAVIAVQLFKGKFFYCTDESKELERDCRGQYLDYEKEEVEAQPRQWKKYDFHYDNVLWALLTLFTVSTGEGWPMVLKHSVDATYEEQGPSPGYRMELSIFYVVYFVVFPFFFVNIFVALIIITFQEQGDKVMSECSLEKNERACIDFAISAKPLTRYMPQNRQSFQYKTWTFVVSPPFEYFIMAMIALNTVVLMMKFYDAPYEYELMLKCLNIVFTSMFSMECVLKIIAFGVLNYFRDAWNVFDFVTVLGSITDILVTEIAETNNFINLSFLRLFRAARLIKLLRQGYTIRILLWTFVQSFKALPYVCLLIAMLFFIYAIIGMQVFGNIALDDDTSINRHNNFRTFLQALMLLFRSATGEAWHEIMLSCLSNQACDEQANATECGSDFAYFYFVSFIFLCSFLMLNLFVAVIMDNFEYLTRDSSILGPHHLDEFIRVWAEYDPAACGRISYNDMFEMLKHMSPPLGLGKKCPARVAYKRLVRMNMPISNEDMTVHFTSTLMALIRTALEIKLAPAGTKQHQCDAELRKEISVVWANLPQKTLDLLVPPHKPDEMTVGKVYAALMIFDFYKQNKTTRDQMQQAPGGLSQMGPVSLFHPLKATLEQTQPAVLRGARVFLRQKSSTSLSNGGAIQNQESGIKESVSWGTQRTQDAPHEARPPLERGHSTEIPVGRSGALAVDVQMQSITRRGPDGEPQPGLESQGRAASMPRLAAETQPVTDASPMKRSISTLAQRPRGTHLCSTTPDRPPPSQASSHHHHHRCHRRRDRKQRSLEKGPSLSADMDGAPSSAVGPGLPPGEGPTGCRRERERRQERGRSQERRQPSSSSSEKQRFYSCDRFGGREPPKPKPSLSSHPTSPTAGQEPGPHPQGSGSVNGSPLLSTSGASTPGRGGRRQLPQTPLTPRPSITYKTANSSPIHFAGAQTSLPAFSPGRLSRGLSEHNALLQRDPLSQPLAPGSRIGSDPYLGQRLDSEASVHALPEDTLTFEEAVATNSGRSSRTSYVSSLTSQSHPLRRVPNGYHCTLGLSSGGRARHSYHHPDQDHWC
T3 sequence (Q02410 whole entry): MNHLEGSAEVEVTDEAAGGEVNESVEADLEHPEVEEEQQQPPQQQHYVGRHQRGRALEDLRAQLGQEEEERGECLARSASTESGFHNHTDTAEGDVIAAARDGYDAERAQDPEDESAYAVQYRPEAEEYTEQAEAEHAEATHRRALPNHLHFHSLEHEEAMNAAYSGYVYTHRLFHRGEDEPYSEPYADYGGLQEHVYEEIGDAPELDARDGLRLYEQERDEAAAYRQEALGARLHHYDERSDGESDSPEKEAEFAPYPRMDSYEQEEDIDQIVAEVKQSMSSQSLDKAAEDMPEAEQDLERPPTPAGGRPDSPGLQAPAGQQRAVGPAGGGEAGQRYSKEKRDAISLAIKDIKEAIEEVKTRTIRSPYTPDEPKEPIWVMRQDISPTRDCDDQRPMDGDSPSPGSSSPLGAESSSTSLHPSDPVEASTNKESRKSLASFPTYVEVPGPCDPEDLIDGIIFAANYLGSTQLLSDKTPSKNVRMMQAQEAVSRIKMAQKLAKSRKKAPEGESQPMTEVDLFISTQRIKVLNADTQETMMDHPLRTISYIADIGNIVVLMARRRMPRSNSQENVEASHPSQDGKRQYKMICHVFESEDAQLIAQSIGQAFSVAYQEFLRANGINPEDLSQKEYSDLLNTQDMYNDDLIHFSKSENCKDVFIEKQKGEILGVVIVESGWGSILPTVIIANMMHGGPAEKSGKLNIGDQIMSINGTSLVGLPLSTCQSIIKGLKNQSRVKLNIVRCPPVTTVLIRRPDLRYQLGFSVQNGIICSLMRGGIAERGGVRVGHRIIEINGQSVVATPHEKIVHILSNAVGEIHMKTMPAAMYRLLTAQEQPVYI
Cytochrome P450 2D6, sequence (P10635 whole entry): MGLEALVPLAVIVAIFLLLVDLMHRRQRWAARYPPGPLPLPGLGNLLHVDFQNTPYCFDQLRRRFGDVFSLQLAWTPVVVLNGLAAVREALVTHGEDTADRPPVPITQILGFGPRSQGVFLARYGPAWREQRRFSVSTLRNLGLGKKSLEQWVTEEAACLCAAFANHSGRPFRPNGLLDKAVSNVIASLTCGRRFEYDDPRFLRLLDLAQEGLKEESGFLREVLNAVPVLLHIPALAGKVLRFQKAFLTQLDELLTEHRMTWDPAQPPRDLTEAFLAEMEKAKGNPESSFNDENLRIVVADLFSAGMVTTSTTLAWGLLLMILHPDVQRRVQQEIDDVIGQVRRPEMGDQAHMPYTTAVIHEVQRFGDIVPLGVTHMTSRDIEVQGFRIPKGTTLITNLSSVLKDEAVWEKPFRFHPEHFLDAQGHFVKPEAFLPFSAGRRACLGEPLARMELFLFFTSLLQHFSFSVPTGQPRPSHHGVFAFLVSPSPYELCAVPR
Cytochrome P450 2C9, sequence (P11712 whole entry): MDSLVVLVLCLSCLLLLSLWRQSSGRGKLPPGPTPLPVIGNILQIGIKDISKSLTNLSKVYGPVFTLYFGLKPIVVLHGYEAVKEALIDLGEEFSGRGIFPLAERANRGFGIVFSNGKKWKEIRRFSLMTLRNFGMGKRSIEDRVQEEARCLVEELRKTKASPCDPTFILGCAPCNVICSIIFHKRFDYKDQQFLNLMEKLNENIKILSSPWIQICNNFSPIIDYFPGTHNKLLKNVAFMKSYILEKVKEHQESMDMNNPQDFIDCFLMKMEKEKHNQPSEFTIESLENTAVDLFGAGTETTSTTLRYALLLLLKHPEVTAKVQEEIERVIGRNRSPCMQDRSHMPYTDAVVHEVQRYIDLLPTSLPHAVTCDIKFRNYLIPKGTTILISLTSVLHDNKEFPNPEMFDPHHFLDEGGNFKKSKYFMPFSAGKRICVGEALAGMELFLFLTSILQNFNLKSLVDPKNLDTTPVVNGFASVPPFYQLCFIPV

With `CCCCNC(=O)C(c1ccc(OCC(=O)OC)c(C(=O)OC)c1)N(CCOC)C(=O)CCCCCN1C(=O)NC(c2ccc(-c3ccccc3)cc2)C(C(=O)OCc2ccccc2)=C1C` (stereo unspecified) the AC50 (Cytochrome P450 3A4 [1]) was 3.16 µM (inconclusive).
With `CCC1=C2CC[C@H]3C(=O)NC(=O)[C@H]3[C@H]2[C@@]2(Cc3ccccc3)/C(=N/CC(=O)OC)OC(=O)N2C1=O` the AC50 (Cytochrome P450 3A4 [1]) was 15.8 µM (inconclusive).
In the case of `N#Cc1c(N2CCCCC2)nc(N)c2c(N)nc3c(c12)CC(c1ccccc1)O3` (stereo unspecified), the EC50 [2] is reported as 2.99 µM (active), the AC50 (Cytochrome P450 2D6) is reported as 25.1 µM (inconclusive) and the AC50 (Cytochrome P450 3A4 [3]) is reported as 1 µM (inconclusive).
For `COc1cccc(N2C(=O)NC(=O)/C(=C\c3ccc([N+](=O)[O-])s3)C2=O)c1`, the IC50 [4] was 13.5 µM (active), the IC50 (Large T antigen) was 32.4 µM (active) and the IC50 [5] was 6.66 µM (active). For the same compound, the AC50 (Caspase-6) was 43 µM (active).
In the case of `O=C(O)/C=C/C(=O)Nc1ccc(F)cc1F`, the AC50 (Cytochrome P450 2C19) is reported as 39.8 µM (inconclusive) and the AC50 (Cytochrome P450 3A4 [6]) is reported as “inconclusive”.
In the case of `Cc1cc(N2CCCCCC2)nc2ccccc12`, the EC50 [2] is reported as 1.33 µM (active).
With `COc1cc([C@@H]2c3cc4c(cc3[C@@H](NC3CCN(Cc5ccccc5)CC3)[C@H]3COC(=O)[C@H]23)OCO4)cc(OC)c1O` the EC50 (BJ [7]) was 1.33 µM (active), the EC50 (BJ [8]) was 0.297 µM (active) and the EC50 [9] was 2.38 µM (active). For the same compound, the EC50 (BJ [10]) was 0.554 µM (active).
For `CC1(C)N=C(N)N=C(N)N1c1ccccc1`, the EC50 [11] was 6.38 µM (active), the EC50 [12] was 0.357 µM (active) and the EC50 (BJ [7]) was > 150 µM (not active). The EC50 [13] was 15.6 µM (active), the EC50 [14] was 1.62 µM (active) and the EC50 (BJ [15]) was 8.15 µM (active). The EC50 (BJ [8]) was > 150 µM (not active), the EC50 [9] was 14.9 µM (active) and the EC50 (Streptococcus) was 1.3 µM (active). For the same compound, the EC50 (BJ [10]) was > 133 µM (inactive).
In the case of `CCCCc1nc(SCCOC)c2c(=O)n(C)c(=O)n(C)c2n1`, the EC50 [2] is reported as 1.5 µM (active).
For `COc1ccc(C(=O)N2CCC3(CC2)CCN(C(c2ccccc2)c2ccccc2)CC3)cc1`, the AC50 (Cytochrome P450 2D6) was 12.6 µM (inconclusive), the AC50 (Cytochrome P450 2C9) was 39.8 µM (inconclusive) and the AC50 (Cytochrome P450 3A4 [6]) was “inconclusive”.
For `C=CCn1cnc2scc(-c3ccc(CC)cc3)c2c1=O`, the EC50 [2] was 5.96 µM (active).
In the case of `O=C(Cc1coc2ccc3ccccc3c12)Nc1nnc(C2CC2)s1`, the IC50 (Vero [16]) is reported as 21.7 µM (active) and the CC50 (Vero [17]) is reported as > 25 µM (active).
With `Oc1c(Cl)cc(Cl)cc1/C=C/c1ccc2cccc(O)c2n1` the IC50 [18] was 6.97 µM (not active).
With `CCOC(=O)c1sc(=S)n(-c2cccc(C(F)(F)F)c2)c1SC` the AC50 (Cytochrome P450 2C9) was 1.58 µM (inconclusive) and the AC50 (Cytochrome P450 3A4 [6]) was “inconclusive”.
